Data set [1] concerns cytoplasmatic peptidase. The following applies: half-life; ref Lazaro et al., 2011; cited from earlier work.
A short description of data set [2]: Solubility of peptide for TAP binding test. Type of data set: physicochemical. The following applies: could not be tested for TAP binding.

In the case of KAFSPEVIPMF [KF11], in data set [1], the “cytoplasmatic peptidase stability, t1/2” value is 13 s.

Consider GTTSTLQEQIAW [GW12], for which the solubility entry in data set [2] is reported as “insoluble”.

The values are drawn from article PMC4005910 (Cell Reports, 2014).
